# Measured values taken from PubChem BioAssay AID651893 (Broad Institute, 2012).
# Tested on: T. b. rhodesiense STIB900 proliferation, Alamar blue, 72 h
# Assay: T. b. rhodesiense proliferation inhibition, dose response, STIB900 strain, plate reader, cherry pick (AID 651893)
compound,measurement,value
C[C@@H]1CN([C@@H](C)CO)C(=O)c2cccc(NC(=O)c3ccncc3)c2O[C@H]1CN(C)Cc1ccc(Oc2ccccc2)cc1,IC50,0.715 µM
